Test results as given in US8686150B2 (Sanofi, priority 2011, dated 2014).

Biological target: T1, human full-length recombinant PKC βII (Homo sapiens, UniProt P05771)
T1 construct: Active human full-length recombinant PKC βII; purchased Invitrogen GmbH, Darmstadt, Germany
Experiment: Determination of PKC βII inhibition (Caliper mobility-shift kinase assay, Fluorescein-RFARKGSLRQKNV peptide substrate)
Assay type: biochemical
Settings: example compounds at a final concentration of 1.14 μM (±0.15 μM)
In short: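 Full-length PKC βII (30 ng/ml in pre-dilution) with PS/DAG/Ca2+ activators, pH 7.4; fluorescein peptide and ATP at 3 μM and 120 μM before mixing. Reaction ran 60 min at 32 °C, was EDTA-stopped, and was read by mobility shift. % inhibition came from product/(substrate+product) peak heights, tested at 1.14 μM final.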

T1 sequence (P05771 1-673 isoform P05771-2): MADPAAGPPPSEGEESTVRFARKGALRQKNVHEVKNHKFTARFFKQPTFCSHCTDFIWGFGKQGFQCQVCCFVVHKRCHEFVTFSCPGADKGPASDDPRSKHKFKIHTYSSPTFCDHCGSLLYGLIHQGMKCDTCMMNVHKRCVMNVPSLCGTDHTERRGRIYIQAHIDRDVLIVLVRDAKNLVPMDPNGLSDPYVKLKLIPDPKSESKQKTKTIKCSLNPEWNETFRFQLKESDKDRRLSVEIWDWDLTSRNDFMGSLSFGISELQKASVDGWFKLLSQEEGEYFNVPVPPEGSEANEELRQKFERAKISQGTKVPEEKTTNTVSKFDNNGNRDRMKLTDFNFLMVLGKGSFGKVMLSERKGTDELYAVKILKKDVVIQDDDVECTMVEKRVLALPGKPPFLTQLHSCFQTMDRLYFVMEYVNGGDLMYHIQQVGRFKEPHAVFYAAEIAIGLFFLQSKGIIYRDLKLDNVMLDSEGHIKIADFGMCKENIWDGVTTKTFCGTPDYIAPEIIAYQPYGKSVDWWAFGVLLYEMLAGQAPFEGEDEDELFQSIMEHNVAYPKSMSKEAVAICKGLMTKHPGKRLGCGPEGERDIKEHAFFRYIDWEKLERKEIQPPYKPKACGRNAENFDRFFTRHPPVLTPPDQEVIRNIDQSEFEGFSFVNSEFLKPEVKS

SMILES	inhibition at 1.14 µM [%]
CCc1n[nH]c2nc(-c3ccc(O)cc3)cc(C(=O)NC3CNC3)c12 [Example 183, 3-Ethyl-6-(4-hydroxy-phenyl)-1H-pyrazolo[3,4-b]pyridine-4-carboxylic acid azetidin-3-ylamide]	67
Cc1n[nH]c2nc(-c3ccc(O)cc3)cc(C(=O)NCC3CNC3)c12 [Example 98, 6-(4-Hydroxy-phenyl)-3-methyl-1H-pyrazolo[3,4-b]pyridine-4-carboxylic acid (azetidin-3-ylmethyl)-amide]	89
Cc1n[nH]c2nc(-c3ccc(O)cc3)cc(C(=O)N3CCNCC3c3ccc4c(c3)OCO4)c12 (stereo not drawn) [Example 32, (2-Benzo[1,3]dioxol-5-yl-piperazin-yl)-[6-(4-hydroxy-phenyl)-3-methyl-1H-pyrazolo[3,4-b]pyridin-4-yl]-methanone]	98
Cc1n[nH]c2nc(-c3ccc(O)cc3)cc(C(=O)N3CCNCC3c3ccc(F)cc3)c12 (stereo not drawn) [Example 84, [2-(4-Fluoro-phenyl)-piperazin-1-yl]-[6-(4-hydroxy-phenyl)-3-methyl-1H-pyrazolo[3,4-b]pyridin-4-yl]-methanone]	101
O=C(c1cc(-c2ccc(O)cc2)nc2[nH]nc(C(F)(F)F)c12)N1CCNCC1 [Example 5, [6-(4-Hydroxy-phenyl)-3-trifluoromethyl-1H-pyrazolo[3,4-b]pyridin-4-yl]-piperazin-1-yl-methanone]	74
Cc1n[nH]c2nc(-c3ccc(O)cc3)cc(C(=O)N3CCNCC3c3cccs3)c12 (stereo not drawn) [Example 31, [6-(4-Hydroxy-phenyl)-3-methyl-1H-pyrazolo[3,4-b]pyridin-4-yl]-(2-thiophen-2-yl-piperazin-1-yl)-methanone]	99
Cc1n[nH]c2nc(-c3ccc(O)cc3)cc(C(=O)N3CC4(CCNCC4)c4ccccc43)c12 [Example 237]	59
Cc1n[nH]c2nc(-c3ccc(O)cc3)cc(C(=O)N3CC(C)(C)NCC3(C)C)c12 [Example 121, [6-(4-Hydroxy-phenyl)-3-methyl-1H-pyrazolo[3,4-b]pyridin-4-yl]-(2,2,5,5-tetramethyl-piperazin-1-yl)-methanone]	99
O=C(c1cc(-c2ccc(O)cc2)nc2[nH]nc(C3CC3)c12)N1CCNCC1 [Example 55, [3-Cyclopropyl-6-(4-hydroxy-phenyl)-1H-pyrazolo[3,4-b]pyridin-4-yl]-piperazin-1-yl-methanone]	27
Cc1n[nH]c2nc(-c3ccc(O)cc3)cc(C(=O)N3CCNC(c4ccccc4)C3)c12 (stereo not drawn) [Example 25, [6-(4-Hydroxy-phenyl)-3-methyl-1H-pyrazolo[3,4-b]pyridin-4-yl]-(3-phenyl-piperazin-1-yl)-methanone]	89
O=C(N[C@@H]1CN2CCC1CC2)c1cc(-c2ccc(O)cc2)nc2[nH]nc(C(F)(F)F)c12 [Example 412, 6-(4-Hydroxy-phenyl)-3-trifluoromethyl-1H-pyrazolo[3,4-b]pyridine-4-carboxylic acid [(S)-1-aza-bicyclo[2.2.2]oct-3-yl]-amide]	23
Cc1n[nH]c2nc(-c3ccc(O)cc3)cc(C(=O)N[C@H]3C[C@H](N)C3)c12 [Example 252, 6-(4-Hydroxy-phenyl)-3-methyl-1H-pyrazolo[3,4-b]pyridine-4-carboxylic acid (trans-3-amino-cyclobutyl)-amide]	72
CO[C@H]1CNC[C@@H]1NC(=O)c1cc(-c2ccc(O)cc2)nc2[nH]nc(C)c12 [Example 213, 6-(4-Hydroxy-phenyl)-3-methyl-1H-pyrazolo[3,4-b]pyridine-4-carboxylic acid ((3S,4S)-4-methoxy-pyrrolidin-3-yl)-amide]	94
CCOC1CNCC1NC(=O)c1cc(-c2ccc(O)cc2)nc2[nH]nc(C)c12 (stereo not drawn) [Example 44, 6-(4-Hydroxy-phenyl)-3-methyl-1H-pyrazolo[3,4-b]pyridine-4-carboxylic acid (4-ethoxy-pyrrolidin-3-yl)-amide]	83
CCCC1(NC(=O)c2cc(-c3ccc(O)cc3)nc3[nH]nc(C)c23)CCNC1 (stereo not drawn) [Example 125, 6-(4-Hydroxy-phenyl)-3-methyl-1H-pyrazolo[3,4-b]pyridine-4-carboxylic acid (3-propyl-pyrrolidin-3-yl)-amide]	52
CCc1n[nH]c2nc(-c3ccc(O)cc3)cc(C(=O)NC3CC4CCCC(C3)N4C)c12 (stereo not drawn) [Example 184, 3-Ethyl-6-(4-hydroxy-phenyl)-1H-pyrazolo[3,4-b]pyridine-4-carboxylic acid (9-methyl-9-aza-bicyclo[3.3.1]non-3-yl)-amide]	22
Cc1n[nH]c2nc(-c3ccc(O)cc3)cc(C(=O)NC3CCN(C)CC3)c12 [Example 220, 6-(4-Hydroxy-phenyl)-3-methyl-1H-pyrazolo[3,4-b]pyridine-4-carboxylic acid (1-methyl-piperidin-4-yl)-amide]	88
Cc1n[nH]c2nc(-c3ccc(O)cc3)cc(C(=O)N3CC(C)(C)NCC3C)c12 (stereo not drawn) [Example 113, [6-(4-Hydroxy-phenyl)-3-methyl-1H-pyrazolo[3,4-b]pyridin-4-yl]-(2,5,5-trimethyl-piperazin-1-yl)-methanone]	93
O=C(c1cc(-c2ccc(O)cc2)nc2[nH]nc(C3CC3)c12)N1CCNC[C@H]1c1ccccc1 [Example 158, [3-Cyclopropyl-6-(4-hydroxy-phenyl)-1H-pyrazolo[3,4-b]pyridin-4-yl]-((R)-2-phenyl-piperazin-1-yl)-methanone]	78

Now from value to compound:

inhibition at 1.14 µM [%]	SMILES
87	Cc1n[nH]c2nc(-c3ccc(O)cc3F)cc(C(=O)N3CCN[C@H](C)C3)c12 [Example 426, [6-(2-Fluoro-4-hydroxy-phenyl)-3-methyl-1H-pyrazolo[3,4-b]pyridin-4-yl]-((R)-3-methyl-piperazin-1-yl)-methanone]
97	Cc1n[nH]c2nc(-c3ccc(O)cc3F)cc(C(=O)N3CCNCC3(C)c3ccccc3)c12 (stereo not drawn) [Example 435, [6-(2-Fluoro-4-hydroxy-phenyl)-3-methyl-1H-pyrazolo[3,4-b]pyridin-4-yl]-(2-methyl-2-phenyl-piperazin-1-yl)-methanone]
66	Cc1n[nH]c2nc(-c3ccc(O)cc3)cc(C(=O)N3CCN4CCC[C@H]4C3)c12 [Example 383, (S)-Hexahydro-pyrrolo[1,2-a]pyrazin-2-yl-[6-(4-hydroxy-phenyl)-3-methyl-1H-pyrazolo[3,4-b]pyridin-4-yl]-methanone]
32	Cc1cc(-c2cc(C(=O)N3CCNCC3)c3c(C)n[nH]c3n2)ccc1O [Example 8, [6-(4-Hydroxy-3-methyl-phenyl)-3-methyl-1H-pyrazolo[3,4-b]pyridin-4-yl]-piperazin-1-yl-methanone]
85	Cc1n[nH]c2nc(-c3ccc(O)cc3)cc(C(=O)N3C[C@H]4CNC[C@H]4C3)c12 [Example 250, (3aR,6aS)-Hexahydro-pyrrolo[3,4-c]pyrrol-2-yl-[6-(4-hydroxy-phenyl)-3-methyl-1H-pyrazolo[3,4-b]pyridin-4-yl]-methanone]
71	Cc1n[nH]c2nc(-c3ccc(O)c(F)c3)cc(C(=O)N[C@H]3C[C@H](N)C3)c12 [Example 309, 6-(3-Fluoro-4-hydroxy-phenyl)-3-methyl-1H-pyrazolo[3,4-b]pyridine-4-carboxylic acid (trans-3-amino-cyclobutyl)-amide]
76	Cc1n[nH]c2nc(-c3ccc(O)c(F)c3)cc(C(=O)N3CCNC[C@H]3C(=O)NC(C)(C)C)c12 [Example 325, (S)-1-[6-(3-Fluoro-4-hydroxy-phenyl)-3-methyl-1H-pyrazolo[3,4-b]pyridine-4-carbonyl]-piperazine-2-carboxylic acid tert-butylamide]
45	Cc1n[nH]c2nc(-c3ccc(O)c(F)c3)cc(C(=O)N3CC4(CCNCC4)c4ccccc43)c12 [Example 330, (1,2-Dihydro-5-spiro[3H-indole-3,4′-piperidin]-1-yl)-[6-(3-fluoro-4-hydroxy-phenyl)-3-methyl-1H-pyrazolo[3,4-b]pyridin-4-yl]-methanone]
20	O=C(c1cc(-c2ccc(O)cc2)nc2[nH]nc(C(F)(F)F)c12)N1CCC2(CCNC2)CC1 [Example 410, (2,8-Diaza-spiro[4.5]dec-8-yl)-[6-(4-hydroxy-phenyl)-3-trifluoromethyl-1H-pyrazolo[3,4-b]pyridin-4-yl]-methanone]
92	Cc1n[nH]c2nc(-c3ccc(O)cc3)cc(C(=O)N3CCNCC3)c12 [Example 53, [6-(4-Hydroxy-phenyl)-3-methyl-1H-pyrazolo[3,4-b]pyridin-4-yl]-piperazin-1-yl-methanone]
58	Cc1n[nH]c2nc(-c3ccc(O)c(F)c3)cc(C(=O)N3CCCC4(CNCCO4)C3)c12 (stereo not drawn) [Example 345, [6-(3-Fluoro-4-hydroxy-phenyl)-3-methyl-1H-pyrazolo[3,4-b]pyridin-4-yl]-(1-oxa-4,8-diaza-spiro[5.5]undec-8-yl)-methanone]
100	Cc1n[nH]c2nc(-c3ccc(O)cc3F)cc(C(=O)N3CCN[C@@H](C)C3)c12 [Example 424, [6-(2-Fluoro-4-hydroxy-phenyl)-3-methyl-1H-pyrazolo[3,4-b]pyridin-4-yl]-((S)-3-methyl-piperazin-1-yl)-methanone]
86	CCC1(NC(=O)c2cc(-c3ccc(O)cc3C)nc3[nH]nc(C)c23)CCCNC1 (stereo not drawn) [Example 149, 6-(4-Hydroxy-2-methyl-phenyl)-3-methyl-1H-pyrazolo[3,4-b]pyridine-4-carboxylic acid (3-ethyl-piperidin-3-yl)-amide]
80	Cc1n[nH]c2nc(-c3ccc(O)c(F)c3)cc(C(=O)NCC(C)(C)N3CCN(C)CC3)c12 [Example 362, 6-(3-Fluoro-4-hydroxy-phenyl)-3-methyl-1H-pyrazolo[3,4-b]pyridine-4-carboxylic acid [2-methyl-2-(4-methyl-piperazin-1-yl)-propyl]-amide]
